According to patent US8153560B2, “Pesticidal active mixtures comprising aminothiazoline compounds” (BASF SE, priority 2007, dated 2012):

What was measured:
[1] = test system: green peach aphid (Myzus persicae); test: Test B.2: control of green peach aphid through systemic means, artificial diet under membrane; type: in vivo
Source text: For evaluating control of green peach aphid (Myzus persicae) through systemic means the test unit consisted of 96-well-microtiter plates containing liquid artificial diet under an artificial membrane.
The compounds or mixtures were formulated using a solution containing 75 wt % water and 25 wt % DMSO. Different concentrations of formulated compounds or mixtures were pipetted into the aphid diet, using a custom built pipetter, at two replications.
(§1) For experimental mixtures in these tests identical volumes of both mixing partners at the desired concentrations respectively, were mixed together.
After application, 5-8 adult aphids were placed on the artificial membrane inside the microtiter plate wells. The aphids were then allowed to suck on the treated aphid diet and incubated at 23±1° C., 50±5% RH for 3 days. Aphid mortality and fecundity was then visually assessed.

[2] = test system: vetch aphid (Megoura viciae); test: Test B.1: control of vetch aphid on broad bean leaf disks, contact or systemic; type: in vivo
Description: For evaluating control of vetch aphid (Megoura viciae) through contact or systemic means the test unit consisted of 24-well-microtiter plates containing broad bean leaf disks.
The compounds or mixtures were formulated using a solution containing 75 wt % water and 25 wt % DMSO. Different concentrations of formulated compounds or mixtures were sprayed onto the leaf disks at 2.5 μl, using a custom built micro atomizer, at two replications.
as §1
After application, the leaf disks were air-dried and 5-8 adult aphids placed on the leaf disks inside the microtiter plate wells. The aphids were then allowed to suck on the treated leaf disks and incubated at 23±1° C., 50±5% RH (relative humidity) for 5 days. Aphid mortality and fecundity was then visually assessed.

[3] = mixing partner alone, ppm 0.4 + 0, 3 days
[4] = mixing partner alone, ppm 40 + 0, 3 days
[5] = mixing partner alone, ppm 0.08 + 0, 5 days
[6] = mixing partner alone, ppm 0.08 + 0, 3 days

For `CC1(C)C(C=C(Cl)Cl)C1C(=O)OC(C#N)c1cccc(Oc2ccccc2)c1` (stereo not drawn) [Alphacypermethrin, alpha-cypermethrin], the “Average Control %” value ([1]; mixing partner alone, ppm 10 + 0, 3 days) was 50%.
For `Cc1cc(C)cc(CC(NC2=NCCS2)c2cccc(C)c2C)c1` (stereo not drawn) [C.33, (4,5-Dihydro-thiazol-2-yl)-[2-(3,5-dimethyl-phenyl)-1-(2,3-dimethyl-phenyl)-ethyl]-amine], the “Average Control %” value ([2]; compound C.33 alone, ppm 0 + 0.8, 5 days) was 0%, the “Average Control %” value ([1]; compound C.33 alone, ppm 0 + 0.8, 3 days) was 0% and the “Average Control %” value ([1]; compound C.33 alone, ppm 0 + 4, 3 days) was 0%. For the same compound, the “Average Control %” value ([1]; compound C.33 alone, ppm 0 + 20, 3 days) was 0% and the “Average Control %” value ([1]; compound C.33 alone, ppm 0 + 20, 3 days, listed as test compound) was 50%.
In the case of `CNC(=O)c1cc(Cl)cc(C)c1NC(=O)c1cc(Br)nn1-c1ncccc1Cl` [Chlorantraniliprole, chlorantraniliprole], the “Average Control %” value [1, 3] is reported as 50%.
For `N#Cc1nn(-c2c(Cl)cc(C(F)(F)F)cc2Cl)c(N)c1[S+]([O-])C(F)(F)F` (stereo not drawn) [Fipronil, fipronil], the “Average Control %” value ([2]; mixing partner alone, ppm 2 + 0, 5 days) was 25% and the “Average Control %” value [1, 3] was 0%.
For `CC1=NNC(=O)N(/N=C/c2cccnc2)C1` [Pymetrozine, pymetrozine], the “Average Control %” value [1, 4] was 50%.
With `CC(C)(C)c1ccc(CSc2cnn(C(C)(C)C)c(=O)c2Cl)cc1` [Pyridaben, pyridaben] the “Average Control %” value [1, 4] was 0%.
`CN1COCN(Cc2cnc(Cl)s2)/C1=N\[N+](=O)[O-]` [Thiamethoxam, thiamethoxam] was tested, and the “Average Control %” value [2, 5] was 0% and the “Average Control %” value [1, 6] was 0%.
For abamectin, the “Average Control %” value [2, 5] was 0% and the “Average Control %” value [1, 6] was 0%.
